One assay has as its system MCF7 cells. Put plainly: Whole cell cytotoxicity assay: Sulforhodamine B. The assay is classed as cell-based, human. Particulars: compound at 100 μM, MCF7 cell growth, 48 hours with drug, SRB staining; for inhibition at 100 µM: Homo sapiens. The procedure:
The following procedure can be found on the Developmental Therapeutics Program NCI/NIH web site at http://dtp.nci.nih.gov/brancehes/btb/ivclsp.html.
1. Human tumor cell lines of HT29, A549 and MCF7 are grown in DMEM containing 10% fetal bovine serum and 2 mM L-glutamine. Cells are plated in a 96 well plate at a density of 5000 cells per well in 100 μL of growth medium and incubated at 37° C., 5% CO2, for 24 hours prior to the addition of experimental compounds.
2. Experimental drugs are solubilized in DMSO for a final concentration of 20 mM immediately prior to use. Drugs are further diluted in growth media for a total of nine drug concentrations and a growth control. At the 24 hour time point, one plate of cells is fixed in situ with TCA as a measurement of the cell population at time zero, or the time of drug addition.
3. The plates are further incubated with drug for an additional 48 hours.
4. The cells are fixed in situ by gently aspirating off the culture media and then adding 50 μL of ice cold 10% TCA per well and incubated at 4° C. for 60 minutes. The plates are washed with tap water five times and allowed to air dry for 5 minute.
5. 50 μL of a 0.4% (w/v) Sulforhodamine B solution in 1% (v/v) acetic acid is added per well and incubated for 30 minutes at room temperature.
6. Following staining, plates are washed five times with 1% acetic acid to remove any unbound dye and then allowed to air dry for 5 minutes.
7. Stain is solubilized with 100 μL of 10 mM Tris pH 10.5 per well and placed on an orbital rotator for 5 minutes.
8. Absorbance is read at 570 nm.

The subject of assay [1] is Histone deacetylase (HDAC), HeLa cell nuclear extract. Put plainly: In vitro fluorescent histone deacetylase assay (Biomol kit, HeLa cell nuclear extract). The assay is classed as biochemical. The settings on record: compound at 100 μM; HeLa cell nuclear extract as HDAC source; substrate 50 μM; 10 min at room temperature. The procedure: Histone deacetylase (HDAC) activity assays were performed using the HDAC fluorescent activity assay/drug discovery kit (Biomol Research Laboratories, Plymouth Meeting, Pa.) essentially according to the manufacturer's instructions. The included HeLa cell nuclear extract, which contains a mosaic of HDAC enzymes and other nuclear factors, was used as the source of HDAC activity. The final substrate concentration in the assay mixture was 50 μM. The reaction was allowed to proceed for 10 min at room temperature before stopping the reaction. Test compounds were prepared as 20 mM stock solutions in DMSO (Molecular Biology grade, Sigma-Aldrich Co. St. Louis, Mo.) and stored at −70° C. Serial dilutions of test compounds were prepared in assay buffer immediately prior to testing. DMSO was determined in a separate trial to have no significant effect on the activity of this assay at concentrations up to 5%; the final DMSO concentration in the wells was no more than 2% and therefore DMSO effects were safely neglected. Assays were performed in white polystyrene 96-well half-area assay plates (Corning, Corning, N.Y.) and measured on a Wallace 1420 fluorescent plate reader (Wallac Oy, Turku, Finland) with an excitation wavelength of 355 nm, an emission wavelength of 460 nm, and a 1 sec signal averaging time.

The record followed here is patent US20050197336A1 (Miikana Therapeutics Corporation, priority 2004, published 2005).

Turning to “2-(4-{4-[(3-(pyrrolidin-1-ylmethyl)-2-furyl]phenylsulfonly}piperazin-1-yl)-1,3-thiazole-5-carboxylic acid hydroxyamide [Example 83]”, the “% inhibition MCF7 cells @ 100 μM” value in the assay with MCF7 cells was determined as 98%. Further, in assay [1], the “% inhibition HDAC @ 100 μM” value is 100%. Consider `COc1ccc(S(=O)(=O)N2CCN(c3ncc(C(=O)NO)s3)CC2)cc1OC` [Example 2, 2-[4-(3,4-dimethoxy-benzenesulfonyl)-piperazin-1-yl]-thiazole-5-carboxylic acid hydroxyamide], for which at 100 µM the inhibition with MCF7 cells was 98.3%. The “% inhibition HDAC @ 100 μM” value in assay [1] is recorded as 99%. Turning to `O=C(NO)c1cnc(N2CCN(S(=O)(=O)c3ccc(OC(F)(F)F)cc3)CC2)s1` [Example 3, 2-[4-(4-trifluoromethoxy-benzenesulfonyl)-piperazin-1-yl]-thiazole-5-carboxylic acid hydroxyamide], testing at 100 µM with MCF7 cells gave an inhibition of 95.3%. Moreover, the “% inhibition HDAC @ 100 μM” value in assay [1] is listed as 93%. In the case of `Cc1ccc(S(=O)(=O)N2CCN(c3ncc(C(=O)NO)s3)CC2)cc1` [Example 4, 2-[4-(4-toluene-4-sulfonyl)-piperazin-1-yl]-thiazole-5-carboxylic acid hydroxyamide], at 100 µM the inhibition with MCF7 cells was 95.4%. Moreover, the “% inhibition HDAC @ 100 μM” value in assay [1] is reported as 100%. For the compound `O=C(NO)c1cnc(N2CCN(S(=O)(=O)c3ccc(C(F)(F)F)cc3)CC2)s1` [Example 5, 2-[4-(4-trifluoromethyl-benzenesulfonyl)-piperazin-1-yl]-thiazole-5-carboxylic acid hydroxyamide], in the assay with MCF7 cells, the inhibition at 100 µM came out at 97.9%. As for `O=C(NO)c1cnc(N2CCN(S(=O)(=O)c3ccc([N+](=O)[O-])cc3)CC2)s1` [Example 6, 2-[4-(4-nitro-benzenesulfonyl)-piperazin-1-yl]-thiazole-5-carboxylic acid hydroxyamide], the inhibition at 100 µM with MCF7 cells is 95.1%. The “% inhibition HDAC @ 100 μM” value in assay [1] stood at 97%.

With `CC(=O)c1ccc(S(=O)(=O)N2CCN(c3ncc(C(=O)NO)s3)CC2)cc1` [Example 7, 2-[4-(4-acetyl-benzenesulfonyl)-piperazin-1-yl]-thiazole-5-carboxylic acid hydroxyamide], in the assay on MCF7 cells, at 100 µM the inhibition was 83.3%. As for `O=C(NO)c1cnc(N2CCN(S(=O)(=O)c3cccs3)CC2)s1` [Example 8, 2-[4-(thiophene-2-benzenesulfonyl)-piperazin-1-Yl]-thiazole-5-carboxylic acid hydroxyamide], in the assay on MCF7 cells, at 100 µM the inhibition was 90.1%. Besides, in assay [1], the “% inhibition HDAC @ 100 μM” value came to 98%.

Take `O=C(NO)c1cnc(N2CCN(S(=O)(=O)c3ccc(-c4ccccc4)cc3)CC2)s1` [Example 9, 2-[4-(biphenyl-4-sulfonyl)-piperazin-1-yl]-thiazole-5-carboxylic acid hydroxyamide]: the inhibition at 100 µM in the assay with MCF7 cells amounted to 97.7%. In assay [1], the “% inhibition HDAC @ 100 μM” value turned out to be 97%. For the compound `CN(C)c1cccc2c(S(=O)(=O)N3CCN(c4ncc(C(=O)NO)s4)CC3)cccc12` [Example 10, 2-[4-(5-dimethylamino-naphthalene-1-sulfonyl)-piperazin-1-yl]-thiazole-5-carboxylic acid hydroxyamide], in the assay with MCF7 cells, at 100 µM the inhibition was 97.8%. Further, the “% inhibition HDAC @ 100 μM” value in assay [1] came to 88%. On the same counts, the results for `O=C(NO)c1cnc(N2CCN(S(=O)(=O)c3ccc(F)cc3)CC2)s1` [Example 11, 2-[4-(4-fluoro-benzenesulfonyl)-piperazin-1-yl]-thiazole-5-carboxylic acid hydroxyamide] are 96.7% and 98%. On to `O=C(NO)c1cnc(N2CCN(S(=O)(=O)c3ccccc3)CC2)s1` [Example 12, 2-[4-(benzenesulfonyl)-piperazin-1-yl]-thiazole-5-carboxylic acid hydroxyamide], for which, in the assay with MCF7 cells, at 100 µM the inhibition was 95.5%. For the same compound, the “% inhibition HDAC @ 100 μM” value in assay [1] came to 98%. On the same counts, the results for `O=C(NO)c1cnc(N2CCN(S(=O)(=O)c3ccc(N4CCCC4)cc3)CC2)s1` [Example 13, 2-[4-(4-pyrolidinylbenzenesulfonyl)-piperazin-1-yl]-thiazole-5-carboxylic acid hydroxyamide] are 98.9% and 99%.

For `O=C(NO)c1cnc(N2CCN(S(=O)(=O)c3ccc(Cl)c(Cl)c3)CC2)s1` [Example 15, 2-[4-(3,4-dichlorolphenylsulfonyl)-piperazin-1-yl]-thiazole-5-carboxylic acid hydroxyamide], the inhibition at 100 µM in the assay with MCF7 cells was 88.5%. Still for that read-out and setting: in the case of `O=C(NO)c1cnc(N2CCN(S(=O)(=O)c3ccccc3Cl)CC2)s1` [Example 17, 2-[4-(2-chlorophenalsulfonyl)-piperazin-1-yl]-thiazole-5-carboxylic acid hydroxyamide] it was 97.8%; in that of `O=C(NO)c1cnc(N2CCN(S(=O)(=O)c3ccc4c(c3)CCO4)CC2)s1` [Example 42, 2-[4-(2,3-dihydrobenzofuransulfonyl)-piperazin-1-yl]-thiazole-5-carboxylic acid hydroxyamide], 90%.

`O=C(NO)c1cnc(N2CCN(S(=O)(=O)c3ccc4c(c3)OCCO4)CC2)s1` [Example 44, 2-[4-(3,4-benzodioxansulfonyl)-piperazin-1-yl]-thiazole-5-carboxylic acid hydroxyamide] had an inhibition at 100 µM in the assay with MCF7 cells of 91.7%. Still for that read-out and setting: with `O=C(NO)c1cnc(N2CCN(S(=O)(=O)c3cc(F)cc(F)c3)CC2)s1` [Example 52, 2-[4-(3,5-difluorophenylsulfonyl)-piperazin-1-yl]-thiazole-5-carboxylic acid hydroxyamide] the figure was 97.3%. Still for that read-out and setting: in the case of `O=C(NO)c1cnc(N2CCN(S(=O)(=O)c3ccc(Cl)cc3)CC2)s1` [Example 54, 2-[4-(chlorophenalsulfonyl)-piperazin-1-yl]-thiazole-5-carboxylic acid hydroxyamide] it was 97.1%; in that of `O=C(NO)c1cnc(N2CCN(S(=O)(=O)c3ccc(-c4ccc[nH]4)cc3)CC2)s1` [Example 67, 2-(4-{[4-(1H-pyrrol-2-yl)phenyl]sulfonyl}piperazin-1-yl)-1,3-thiazole-5-carboxylic acid hydroxyamide], 98%; in that of `O=C(NO)c1cnc(N2CCN(S(=O)(=O)c3ccc(-c4ccc(C(=O)N5CCOCC5)cc4)cc3)CC2)s1` [Example 69, 2-[4-(4′-(morpholin-4-ylcarbonyl)-1,1′-biphenylsulfonyl)piperazin-1-yl]-1,3-thiazole-5-carboxylic acid hydroxyamide], 87.7%. Same read-out and setting: in the case of `CS(=O)(=O)Nc1ccc(-c2ccc(S(=O)(=O)N3CCN(c4ncc(C(=O)NO)s4)CC3)cc2)cc1` [Example 70, 2-[4-(4′-methylsulfonylamino-1,1′-biphenylsulfonyl)piperazin-1-yl]-1,3-thiazole-5-carboxylic acid hydroxyamide] it was 83.6%; in that of `CN(C)c1cccc(-c2ccc(S(=O)(=O)N3CCN(c4ncc(C(=O)NO)s4)CC3)cc2)c1` [Example 71, 2-[4-(3′-(dimethylamino)-1,1′-biphenylsulfonyl)piperazin-1-yl]-1,3-thiazole-5-carboxylic acid hydroxyamide], 97.2%; in that of `CN(C)CCN(C)Cc1cccc(-c2ccc(S(=O)(=O)N3CCN(c4ncc(C(=O)NO)s4)CC3)cc2)c1` [Example 85, 2-{4-[3′-{[(2-(dimethylamino)ethyl)(methyl)amino]methyl}-1,1′-biphenylsulfonyl]piperazin-1-yl}-1,3-thiazole-5-carboxylic acid hydroxyamide], 97.5%.

Turning to `CCc1ccc(S(=O)(=O)N2CCN(c3ncc(C(=O)NO)s3)CC2)cc1` [Example 100, 2-[4-(4-Ethylbenzenesulfonyl)piperazin-1-yl]-thiazole-5-carboxylic acid hydroxyamide], in the assay with MCF7 cells, the inhibition at 100 µM was determined as 96.8%. On the same count and under the same terms, with `O=C(NO)c1cnc(N2CCN(S(=O)(=O)c3ccc(-n4cccn4)cc3)CC2)s1` [Example 101, 2-[4-(4-pyrazolylbenzenesulfonyl)-piperazin-1-yl]-thiazole-5-carboxylic acid hydroxyamide] the figure was 98.1%.

Broadly, the inhibition is how much of the control response was suppressed.
